Data taken from patent publication US9499538B2, “Estrogen receptor modulators and uses thereof” (Seragon Pharmaceuticals, Inc., priority 2012, dated 2016).

Key:
MCF-7 cells = assay: Breast Cancer Cell Viability Assays (MCF-7, CellTiter-Glo); type: cell-based; details: 5 days' compound exposure; for IC50: Homo sapiens, MCF7, 120 h
Procedure, shortened: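 MCF-7 cells (320/well, RPMI with 10% FBS) exposed for 5 days to an eleven-point semilog series, 0.3–0.000003 μM final. Viability read by CellTiter-Glo luminescence, expressed as background-corrected percent of untreated cells.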

ER-α in MCF-7 cells = molecular target: T1, ER-α in MCF-7 cells (Homo sapiens, UniProt P03372); assay: Breast Cancer Cell ER-α In Cell Western Assay (SP1); type: cell-based; details: 4 or 24 hr post compound addition; for Emax: MCF7, SP1 antibody, read-out: ER-α In Cell Western Assay (SP1) Max Response; for DC50: SP1 antibody, read-out: ER-α In Cell Western Assay (SP1) IC50
T1 construct: endogenous in cells; host or cells: MCF-7
T1 sequence (P03372 1-595): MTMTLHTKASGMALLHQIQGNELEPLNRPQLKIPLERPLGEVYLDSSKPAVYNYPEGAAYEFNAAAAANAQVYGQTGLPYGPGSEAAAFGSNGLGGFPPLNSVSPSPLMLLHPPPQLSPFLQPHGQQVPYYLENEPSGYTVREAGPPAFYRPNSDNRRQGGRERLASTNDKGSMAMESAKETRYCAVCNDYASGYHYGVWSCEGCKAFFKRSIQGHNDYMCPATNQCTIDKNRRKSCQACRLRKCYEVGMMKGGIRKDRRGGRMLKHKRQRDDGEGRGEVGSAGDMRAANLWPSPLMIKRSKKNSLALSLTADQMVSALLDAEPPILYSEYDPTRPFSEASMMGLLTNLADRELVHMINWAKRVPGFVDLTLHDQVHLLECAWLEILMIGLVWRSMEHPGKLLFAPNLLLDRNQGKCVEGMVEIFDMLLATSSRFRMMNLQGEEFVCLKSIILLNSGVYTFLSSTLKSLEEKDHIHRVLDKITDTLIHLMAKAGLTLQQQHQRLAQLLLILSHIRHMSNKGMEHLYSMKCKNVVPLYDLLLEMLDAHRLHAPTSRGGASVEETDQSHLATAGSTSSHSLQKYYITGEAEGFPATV
Procedure, shortened: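 MCF-7 cells in charcoal-stripped FBS medium, treated with 11-point semilog dilutions (0.3–0.000003 μM final) for 4 or 24 h. Fixed cells immunostained with SP1 antibody (800 nm) and DRAQ5 DNA (700 nm); ER/DNA ratio expressed as % of untreated cells.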

| Structure (SMILES) | MCF7 Viability Assay Max Response (MCF-7 cells) | IC50 (MCF-7 cells) | Emax (ER-α in MCF-7 cells) | DC50 (ER-α in MCF-7 cells) |
| --- | --- | --- | --- | --- |
| N#Cc1cc(C(F)(F)F)ccc1/C(=C(\c1ccc(/C=C/C(=O)O)cc1)c1ccc2[nH]nc(F)c2c1)C1CCC1 [Example 243, (E)-3-(4-((E)-2-(2-Cyano-4-(trifluoromethyl)phenyl)-2-cyclobutyl-1-(3-fluoro-1H-indazol-5-yl)vinyl)phenyl)acrylic acid] | ++ (++ = a single % value ≧ 40%) | ≤ 100 nM | ≥ 40% | ≤ 100 nM |
| O=C(O)/C=C/c1ccc(/C(=C(\c2ncc(C(F)(F)F)cc2Cl)C2CCC2)c2ccc3scnc3c2)cc1 [Example 244, (E)-3-(4-((E)-1-(Benzo[d]thiazol-5-yl)-2-(3-chloro-5-(trifluoromethyl)pyridin-2-yl)-2-cyclobutylvinyl)phenyl)acrylic acid] | ++ (++ = a single % value ≧ 40%) | ≤ 100 nM | ≥ 40% | ≤ 100 nM |
| COc1cc(C)c(/C(=C(\c2ccc(/C=C/C(=O)O)cc2)c2cccc3[nH]nc(F)c23)C2CCC2)cn1 [Example 245, (E)-3-(4-((E)-2-Cyclobutyl-1-(3-fluoro-1H-indazol-4-yl)-2-(6-methoxy-4-methylpyridin-3-yl)vinyl)phenyl)acrylic acid] | ++ (++ = a single % value ≧ 40%) | ≤ 100 nM | ≥ 40% | ≤ 100 nM |
| O=C(O)/C=C/c1ccc(/C(=C(\c2ncccc2Cl)C2CCC2)c2cccc3[nH]nc(F)c23)cc1 [Example 246, (E)-3-(4-((E)-2-(3-Chloropyridin-2-yl)-2-cyclobutyl-1-(3-fluoro-1H-indazol-4-yl)vinyl)phenyl)acrylic acid] | ++ (++ = a single % value ≧ 40%) | ≤ 100 nM | ≥ 40% | ≤ 100 nM |
| N#Cc1cccnc1/C(=C(\c1ccc(/C=C/C(=O)O)cc1)c1ccc2[nH]nc(F)c2c1)C1CCC1 [Example 247, (E)-3-(4-((E)-2-(3-Cyanopyridin-2-yl)-2-cyclobutyl-1-(3-fluoro-1H-indazol-5-yl)vinyl)phenyl)acrylic acid] | ++ (++ = a single % value ≧ 40%) | ≤ 100 nM | ≥ 40% | ≤ 100 nM |
| N#Cc1n[nH]c2ccc(/C(=C(/c3ccc(F)cc3Cl)C3CCC3)c3ccc(/C=C/C(=O)O)cc3)cc12 [Example 248, (E)-3-(4-((E)-2-(2-Chloro-4-fluorophenyl)-1-(3-cyano-1H-indazol-5-yl)-2-cyclobutylvinyl)phenyl)acrylic acid] | ++ (++ = a single % value ≧ 40%) | ≤ 100 nM | ≥ 40% | ≤ 100 nM |
| N#Cc1cc(Cl)cnc1/C(=C(\c1ccc(/C=C/C(=O)O)cc1)c1ccc2[nH]nc(F)c2c1)C1CCC1 [Example 249, (E)-3-(4-((E)-2-(5-Chloro-3 cyanopyridin-2-yl)-2-cyclobutyl-1-(3-fluoro-1H-indazol-5-yl)vinyl)phenyl)acrylic acid] | ++ (++ = a single % value ≧ 40%) | ≤ 100 nM | ≥ 40% | ≤ 100 nM |
| O=C(O)/C=C/c1ccc(/C(=C(\c2ncc(C(F)(F)F)cc2Cl)C2CCC2)c2ccc3[nH]nc(F)c3c2)cc1 [Example 250, (E)-3-(4-((E)-2-(3-Chloro-5-(trifluoromethyl)pyridin-2-yl)-2-cyclobutyl-1-(3-fluoro-1H-indazol-5-yl)vinyl)phenyl)acrylic acid] | ++ (++ = a single % value ≧ 40%) | ≤ 100 nM | ≥ 40% | ≤ 100 nM |
| O=C(O)/C=C/c1ccc(/C(=C(\c2ncc(F)cc2Cl)C2CCC2)c2ccc3[nH]nc(F)c3c2)cc1 [Example 251, (E)-3-(4-((E)-2-(3-Chloro-5-fluoropyridin-2-yl)-2-cyclobutyl-1-(3-fluoro-1H-indazol-5-yl)vinyl)phenyl)acrylic acid] | ++ (++ = a single % value ≧ 40%) | ≤ 100 nM | ≥ 40% | ≤ 100 nM |
| O=C(O)/C=C/c1ccc(/C(=C(\c2ccc(F)cc2Cl)C2CCC2)c2ccc3[nH]nc(C(F)(F)F)c3c2)cc1 [Example 252, (E)-3-(4-((E)-2-(2-Chloro-4-fluorophenyl)-2-cyclobutyl-1-(3-(trifluoromethyl)-1H-indazol-5-yl)vinyl)phenyl)acrylic acid] | ++ (++ = a single % value ≧ 40%) | > 100 nM | ≥ 40% | ≤ 100 nM |
| O=C(O)/C=C/c1ccc(/C(=C(\c2ncc(F)cc2Cl)C2CCC2)c2ccc3[nH]nc(F)c3c2)cc1F [Example 253, (E)-3-(4-((Z)-2-(3-Chloro-5-fluoropyridin-2-yl)-2-cyclobutyl-1-(3-fluoro-1H-indazol-5-yl)vinyl)-2-fluorophenyl)acrylic acid] | ++ (++ = a single % value ≧ 40%) | ≤ 100 nM | ≥ 40% | ≤ 100 nM |
| O=C(O)/C=C/c1ccc(/C(=C(\c2ncc(Cl)cc2Cl)C2CCC2)c2ccc3[nH]nc(F)c3c2)cc1F [Example 254, (E)-3-(4-((Z)-2-Cyclobutyl-2-(3,5-dichloropyridin-2-yl)-1-(3-fluoro-1H-indazol-5-yl)vinyl)-2-fluorophenyl)acrylic acid] | ++ (++ = a single % value ≧ 40%) | ≤ 100 nM | ≥ 40% | ≤ 100 nM |
| CCOC(=O)/C=C/c1ccc(/C(=C(\c2ncc(Cl)cc2Cl)C2CCC2)c2ccc3[nH]nc(F)c3c2)cc1F [Example 255, (E)-Ethyl 3-(4-((Z)-2-cyclobutyl-2-(3,5-dichloropyridin-2-yl)-1-(3-fluoro-1H-indazol-5-yl)vinyl)-2-fluorophenyl)acrylate] | + (+ = a single % value < 40%) | ≤ 100 nM | ≥ 40% | ≤ 100 nM |
| COc1ccc(/C(=C(\c2ccc(/C=C/C(=O)O)c(F)c2)c2ccc3[nH]nc(F)c3c2)C2CCC2)c(Cl)c1 [Example 256, (E)-3-(4-((Z)-2-(2-Chloro-4-methoxyphenyl)-2-cyclobutyl-1-(3-fluoro-1H-indazol-5-yl)vinyl)-2-fluorophenyl)acrylic acid] | ++ (++ = a single % value ≧ 40%) | ≤ 100 nM | ≥ 40% | ≤ 100 nM |
| O=C(O)/C=C/c1ccc(/C(=C(\c2ncc(Cl)cc2C(F)(F)F)C2CCC2)c2ccc3[nH]nc(F)c3c2)cc1 [Example 257, (E)-3-(4-((E)-2-(5-Chloro-3-(trifluoromethyl)pyridin-2-yl)-2-cyclobutyl-1-(3-fluoro-1H-indazol-5-yl)vinyl)phenyl)acrylic acid] | ++ (++ = a single % value ≧ 40%) | ≤ 100 nM | ≥ 40% | ≤ 100 nM |
| O=C(O)/C=C/c1ccc(/C(=C(\c2cnc(C(F)(F)F)cc2C(F)(F)F)C2CCC2)c2ccc3[nH]nc(F)c3c2)cc1 [Example 258, (E)-3-(4-((E)-2-(4,6-bis(Trifluoromethyl)pyridin-3-yl)-2-cyclobutyl-1-(3-fluoro-1H-indazol-5-yl)vinyl)phenyl)acrylic acid] | ++ (++ = a single % value ≧ 40%) | ≤ 100 nM | ≥ 40% | ≤ 100 nM |
